Laboratory results as given in patent publication US6673793B2, “Oxazinoquinolones useful for the treatment of viral infections” (Pharmacia & Upjohn Co., priority 2000, dated 2004).
Where two headings read alike, the source gives them in different places.

Experiments:
[1] = molecular target: T1, CMV polymerase (Human cytomegalovirus, UniProt P08546); assay: HCMV polymerase assay, scintillation proximity assay (SPA), modified version; format: biochemical; settings: modified HCMV polymerase SPA assay: compounds diluted in 100% DMSO, 4.5 mM DTT in polymerase buffer, different lot of CMV polymerase
T1 construct: made in house; host or cells: recombinant baculovirus-infected SF-9 cells
Experimental: The HCMV polymerase assay is performed using a scintillation proximity assay (SPA) as described in several references, such as N. D. Cook, et al., Pharmaceutical Manufacturing International, pages 49-53 (1992); K. Takeuchi, Laboratory Practice, September issue (1992); U.S. Pat. No. 4,568,649 (1986); which are incorporated by reference herein. Reactions are performed in 96-well plates. The assay is conducted in 100 μl volume with 5.4 mM HEPES (pH 7.5), 11.7 mM KCl, 4.5 mM MgCl2, 0.36 mg/ml BSA, and 90 nM ^3H-dTTP. Assays are run with and without CHAPS, (3-[(3-Cholamidopropyl)-dimethylammonio]-1-propane-sulfonate) at a final concentration of 2 mM. HCMV polymerase is diluted in enzyme dilution buffer containing 50% glycerol, 250 mM NaCl, 10 mM HEPES (pH 7.5), 100 μg/ml BSA, and 0.01% sodium azide. The HCMV polymerase, which is expressed in recombinant baculovirus-infected SF-9 cells and purified according to literature procedures, is added at 10% (or 10 μl) of the final reaction volume, i.e., 100 μl. Compounds are diluted in 50% DMSO and 10 μl are added to each well. Control wells contain an equivalent concentration of DMSO. Unless noted otherwise, reactions are initiated via the addition of 6 nM biotinylated poly(dA)-oligo(dT) template/primer to reaction mixtures containing the enzyme, substrate, and compounds of interest. Plates are incubated in a 25 C. or 37 C. H2O bath and terminated via the addition of 40 μl/reaction of 0.5 M EDTA (pH 8) per well. Reactions are terminated within the time-frame during which substrate incorporation is linear and varied depending upon the enzyme and conditions used, i.e., 30 min. for HCMV polymerase. Ten μl of streptavidin-SPA beads (20 mg/ml in PBS/10% glycerol) are added following termination of the reaction. Plates are incubated 10 min. at 37 C., then equilibrated to room temperature, and counted on a Packard Topcount. Linear regressions are performed and IC50's are calculated using computer software.
A modified version of the above HCMV polymerase assay is performed as described above, but with the following changes: Compounds are diluted in 100% DMSO until final dilution into assay buffer. In the previous assay, compounds are diluted in 50% DMSO. 4.5 mM dithiotherotol (DTT) is added to the polymerase buffer.

T1 sequence (P08546 whole entry): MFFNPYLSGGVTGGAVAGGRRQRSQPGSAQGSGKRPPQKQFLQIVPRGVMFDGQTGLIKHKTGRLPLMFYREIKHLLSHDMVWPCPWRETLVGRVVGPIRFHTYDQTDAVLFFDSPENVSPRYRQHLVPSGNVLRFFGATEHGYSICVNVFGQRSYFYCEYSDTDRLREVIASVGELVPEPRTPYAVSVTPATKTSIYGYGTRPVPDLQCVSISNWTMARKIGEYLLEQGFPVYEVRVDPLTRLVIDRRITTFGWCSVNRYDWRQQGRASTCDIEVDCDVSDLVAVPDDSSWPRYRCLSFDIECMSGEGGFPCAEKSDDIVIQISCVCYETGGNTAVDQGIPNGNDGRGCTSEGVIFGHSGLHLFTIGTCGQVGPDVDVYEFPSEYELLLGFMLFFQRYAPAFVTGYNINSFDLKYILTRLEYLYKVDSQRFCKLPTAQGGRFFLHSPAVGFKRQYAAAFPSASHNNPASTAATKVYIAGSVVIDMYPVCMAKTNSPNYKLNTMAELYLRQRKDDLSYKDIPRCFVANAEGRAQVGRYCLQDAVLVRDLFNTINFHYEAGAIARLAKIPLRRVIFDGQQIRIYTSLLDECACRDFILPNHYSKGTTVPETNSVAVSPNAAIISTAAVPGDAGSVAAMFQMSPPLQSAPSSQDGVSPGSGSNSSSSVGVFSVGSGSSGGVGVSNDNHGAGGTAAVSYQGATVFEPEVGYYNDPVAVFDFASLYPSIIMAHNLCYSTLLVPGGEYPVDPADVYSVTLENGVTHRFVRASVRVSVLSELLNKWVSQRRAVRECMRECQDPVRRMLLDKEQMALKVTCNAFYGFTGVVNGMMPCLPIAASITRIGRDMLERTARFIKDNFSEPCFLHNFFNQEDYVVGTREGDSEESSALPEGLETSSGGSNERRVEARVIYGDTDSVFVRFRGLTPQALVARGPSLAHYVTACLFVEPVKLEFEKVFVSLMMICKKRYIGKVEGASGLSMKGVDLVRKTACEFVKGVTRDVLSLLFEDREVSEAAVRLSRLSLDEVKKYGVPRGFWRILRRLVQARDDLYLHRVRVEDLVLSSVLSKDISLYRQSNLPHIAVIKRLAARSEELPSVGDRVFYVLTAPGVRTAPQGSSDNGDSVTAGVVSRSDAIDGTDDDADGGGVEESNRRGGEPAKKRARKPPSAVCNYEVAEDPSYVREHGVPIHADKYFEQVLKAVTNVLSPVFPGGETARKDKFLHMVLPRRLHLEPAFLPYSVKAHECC

Structure (SMILES): O=C(NCc1ccc(Cl)cc1)c1cn2c3c(cc(CN4CCOCC4)cc3c1=O)OC(c1ccc3c(c1)OCCO3)C2 (stereo not drawn) [Example 41, N-(4-Chlorobenzyl)-2-(2,3-dihydro-1,4-benzodioxin-6-yl)-9-(morpholin-4-ylmethyl)-7-oxo-2,3-dihydro-7H-[1,4]oxazino[2,3,4-ij]quinoline-6-carboxamide]
- IC50 ([1]; read-out: CMV polymerase IC50): 0.44 µM
- melting point: 240 to 243 °C

Structure (SMILES): O=C(NCc1ccc(Cl)cc1)c1cn2c3c(cc(CN4CCOCC4)cc3c1=O)OC(CN1CCOCC1)C2 (stereo not drawn) [Example 2, N-(4-Chlorobenzyl)-2,9-bis(4-morpholinylmethyl)-7-oxo-2,3-dihydro-7H-[1,4]oxazino[2,3,4-ij]quinoline-6-carboxamide]
- IC50 ([1]; read-out: CMV polymerase IC50): 0.76 µM
- melting point: 178 to 180 °C

Structure (SMILES): O=C(NCc1ccc(Cl)cc1)c1cn2c3c(cc(CN4CCOCC4)cc3c1=O)OC(CN1CCCC1)C2 (stereo not drawn) [Example 5, N-(4-Chlorobenzyl)-9-(4-morpholinylmethyl)-7-oxo-2-(1-pyrrolidinylmethyl)-2,3-dihydro-7H-[1,4]oxazino[2,3,4-ij]quinoline-6-carboxamide]
- IC50 ([1]; read-out: CMV polymerase IC50): 1.1 µM
- melting point: 209.5 to 212 °C

Structure (SMILES): COCOc1cccc(C2Cn3cc(C(=O)NCc4ccc(Cl)cc4)c(=O)c4cc(CN5CCOCC5)cc(c43)O2)c1OCOC (stereo not drawn) [Example 44, 2-[2,3-bis(Methoxymethoxy)phenyl]-N-(4-chlorobenzyl)-9-(morpholin-4-ylmethyl)-7-oxo-2,3-dihydro-7H-[1,4]oxazino[2,3,4-ij]quinoline-6-carboxamide]
- IC50 ([1]; read-out: CMV polymerase IC50): 1.04 µM
- melting point: 177 to 180 °C

Structure (SMILES): O=C(NCc1ccc(Cl)cc1)c1cn2c3c(cc(CN4CCOCC4)cc3c1=O)OC(c1ccco1)C2 (stereo not drawn) [Example 60, N-(4-Chlorobenzyl)-2-(2-furyl)-9-(morpholin-4-ylmethyl)-7-oxo-2,3-dihydro-7H-[1,4]oxazino[2,3,4-ij]quinoline-6-carboxamide]
- IC50 ([1]; read-out: CMV polymerase IC50): 0.46 µM
- melting point: 220 to 222.5 °C

Structure (SMILES): O=C(NCc1ccc(Cl)cc1)c1cn2c3c(cc(CN4CCOCC4)cc3c1=O)OC(c1ccsc1)C2 (stereo not drawn) [Example 45, N-(4-Chlorobenzyl)-9-(morpholin-4-ylmethyl)-7-oxo-2-thien-3-yl-2,3-dihydro-7H-[1,4]oxazino[2,3,4-ij]quinoline-6-carboxamide]
- IC50 ([1]; read-out: CMV polymerase IC50): 0.41 µM
- melting point: 241 to 245 °C (dec.)

Structure (SMILES): O=C(NCc1ccc(Cl)cc1)c1cn2c3c(cc(CN4CCOCC4)cc3c1=O)OC(c1ccoc1)C2 (stereo not drawn) [Example 37, N-(4-Chlorobenzyl)-2-(3-furyl)-9-(morpholin-4-ylmethyl)-7-oxo-2,3-dihydro-7H-[1,4]oxazino[2,3,4-ij]quinoline-6-carboxamide]
- IC50 ([1]; read-out: CMV polymerase IC50): 0.38 µM
- melting point: 193 to 196 °C

Structure (SMILES): O=C(NCc1ccc(Cl)cc1)c1cn2c3c(cc(CN4CCOCC4)cc3c1=O)OC(c1cccc3c1OCO3)C2 (stereo not drawn) [Example 42, 2-(1,3-Benzodioxol-4-yl)-N-(4-chlorobenzyl)-9-(morpholin-4-ylmethyl)-7-oxo-2,3-dihydro-7H-[1,4]oxazino[2,3,4-ij]quinoline-6-carboxamide]
- IC50 ([1]; read-out: CMV polymerase IC50): 0.2 µM
- melting point: 221 to 225 °C (dec.)

Structure (SMILES): O=C(NCc1ccc(Cl)cc1)c1cn2c3c(cc(CN4CCOCC4)cc3c1=O)OC(c1cccc(CO)c1)C2 (stereo not drawn) [Example 62, N-(4-Chlorobenzyl)-2-[3-(hydroxymethyl)phenyl]-9-(morpholin-4-ylmethyl)-7-oxo-2,3-dihydro-7H-[1,4]oxazino[2,3,4-ij]quinoline-6-carboxamide]
- IC50 ([1]; read-out: CMV polymerase IC50): 0.38 µM
- melting point: 229 to 233 °C

Structure (SMILES): O=C(NCc1ccc(Cl)cc1)c1cn2c3c(cc(CN4CCOCC4)cc3c1=O)OC1(CCC(O)CC1)C2 (stereo not drawn) [Example 55, N-[(4-Chlorophenyl)methyl]-4-hydroxy-9′-(4-morpholinylmethyl)-7′-oxospiro[cyclohexane-1,2′(3′H)-[7H]pyrido[1,2,3-de][1,4]benzoxazine]-6′-carboxamide]
- IC50 ([1]; read-out: CMV polymerase IC50): 0.41 µM
- melting point: 229 to 234 °C

Structure (SMILES): O=C(NCc1ccc(Cl)cc1)c1cn2c3c(cc(CN4CCOCC4)cc3c1=O)OC(c1ccc3c(c1)OCO3)C2 (stereo not drawn) [Example 40, 2-(1,3-Benzodioxol-5-yl)-N-(4-chlorobenzyl)-9-(morpholin-4-ylmethyl)-7-oxo-2,3-dihydro-7H-[1,4]oxazino[2,3,4-ij]quinoline-6-carboxamide]
- IC50 ([1]; read-out: CMV polymerase IC50): 0.33 µM
- melting point: 227 to 231 °C

Structure (SMILES): O=C1CCC2(CC1)Cn1cc(C(=O)NCc3ccc(Cl)cc3)c(=O)c3cc(CN4CCOCC4)cc(c31)O2 [Example 54, N-[(4-Chlorophenyl)methyl]-9′-(4-morpholinylmethyl)-4,7′-dioxospiro[cyclohexane-1,2′(3′H)-[7H]pyrido[1,2,3-de][1,4]benzoxazine]-6′-carboxamide]
- IC50 ([1]; read-out: CMV polymerase IC50): 0.6 µM
- melting point: 249.5 to 252 °C

Structure (SMILES): CN1CCC2(CC1)Cn1cc(C(=O)NCc3ccc(Cl)cc3)c(=O)c3cc(CN4CCOCC4)cc(c31)O2 [Example 49, N-[(4-Chlorophenyl)methyl]-1-methyl-9′-(4-morpholinylmethyl)-7′-oxospiro[piperidine-4,2′(3′H)-[7H]pyrido[1,2,3-de][1,4]benzoxazine]-6′-carboxamide]
- IC50 ([1]; read-out: CMV polymerase IC50): 2.33 µM
- melting point: 234 to 237 °C (dec.)

Structure (SMILES): O=C(NCc1ccc(Cl)cc1)c1cn2c3c(cc(CN4CCOCC4)cc3c1=O)OC1(CCSCC1)C2 [Example 53, N-[(4-Chlorophenyl)methyl]-2′,3′,5′,6′-tetrahydro-9-(4-morpholinylmethyl)-7-oxospiro[7H-pyrido[1,2,3-de]-1,4-benzoxazine-2(3H),4′-[4H]thiopyran]-6-carboxamide]
- IC50 ([1]; read-out: CMV polymerase IC50): 0.53 µM
- melting point: 147 to 149 °C

Structure (SMILES): O=C(NCc1ccc(Cl)cc1)c1cn2c3c(cc(CN4CCOCC4)cc3c1=O)OC(c1cccc(O)c1)C2 (stereo not drawn) [Example 63, N-(4-Chlorobenzyl)-2-(3-hydroxyphenyl)-9-(4-morpholinylmethyl)-7-oxo-2,3-dihydro-7H-[1,4]oxazino[2,3,4-ij]quinoline-6-carboxamide]
- IC50 ([1]; read-out: CMV polymerase IC50): 0.29 µM
- melting point: 213 °C (dec.)

Structure (SMILES): O=C(NCc1ccc(Cl)cc1)c1cn2c3c(cc(CN4CCOCC4)cc3c1=O)OC(CNCC(O)CO)C2 (stereo not drawn) [Example 6, N-(4-Chlorobenzyl)-2-{[(2,3-dihydroxypropyl)amino]methyl}-9-(4-morpholinylmethyl)-7-oxo-2,3-dihydro-7H-[1,4]oxazino[2,3,4-ij]quinoline-6-carboxamide]
- IC50 ([1]; read-out: CMV polymerase IC50): 0.66 µM

Structure (SMILES): COCOc1ccccc1C1Cn2cc(C(=O)NCc3ccc(Cl)cc3)c(=O)c3cc(CN4CCOCC4)cc(c32)O1 (stereo not drawn) [Example 64, N-(4-Chlorobenzyl)-2-[2-(methoxymethoxy)phenyl]-9-(morpholin-4-ylmethyl)-7-oxo-2,3-dihydro-7H-[1,4]oxazino[2,3,4-ij]quinoline-6-carboxamide]
- IC50 ([1]; read-out: CMV polymerase IC50): 1.05 µM

Structure (SMILES): O=C(NCc1ccc(Cl)cc1)c1cn2c3c(cc(CN4CCOCC4)cc3c1=O)OC(CNCCO)C2 (stereo not drawn) [Example 7, N-(4-Chlorobenzyl)-2-{[(2-hydroxyethyl)amino]methyl}-9-(4-morpholinylmethyl)-7-oxo-2,3-dihydro-7H-[1,4]oxazino[2,3,4-ij]quinoline-6-carboxamide]
- IC50 ([1]; read-out: CMV polymerase IC50): 0.67 µM

Structure (SMILES): O=C(NCc1ccc(Cl)cc1)c1cn2c3c(cc(CN4CCOCC4)cc3c1=O)OC(CNCc1cccnc1)C2 (single isomer, unassigned) [Example 22, N-(4-chlorobenzyl)-9-(4-morpholinylmethyl)-7-oxo-2-(R or S)-{[(3-pyridinylmethyl)amino]methyl}-2,3-dihydro-7H-[1,4]oxazino[2,3,4-ij]quinoline-6-carboxamide]
- IC50 ([1]; read-out: CMV polymerase IC50): 0.3 µM

Structure (SMILES): COP(=O)(OC)OCC1Cn2cc(C(=O)NCc3ccc(Cl)cc3)c(=O)c3cc(CN4CCOCC4)cc(c32)O1 (stereo not drawn) [Example 26, [6-{[(4-Chlorobenzyl)amino]carbonyl}-9-(4-morpholinylmethyl)-7-oxo-2,3-dihydro-7H-[1,4]oxazino[2,3,4-ij]quinolin-2-yl]methyl dimethyl phosphate]
- IC50 ([1]; CMV polymerase IC50 (μM)): 0.53 µM

Structure (SMILES): O=C(NCc1ccc(Cl)cc1)c1cn2c3c(cc(CN4CCOCC4)cc3c1=O)OC(c1ccccc1O)C2 (stereo not drawn) [Example 68, N-(4-Chlorobenzyl)-2-(2-hydroxyphenyl)-9-(morpholin-4-ylmethyl)-7-oxo-2,3-dihydro-7H-[1,4]oxazino[2,3,4-ij]quinoline-6-carboxamide]
- IC50 ([1]; read-out: CMV polymerase IC50): 0.82 µM
